The values below come from US20090099343A1 (priority 2005, published 2009).

For assay [1], the system named is PrP^Sc. The conditions noted are these: for binding to PrP^Sc compared among peptide reagents: pH 4.
Assay [2] deals with PrP^Sc (Mus musculus, UniProt P04925).
Assay [3] concerns PrP^Sc.
The test system of assay [4] is PrP^Sc. The source holds these as a separate data set.

PrP^Sc (Mus musculus, UniProt P04925), sequence (P04925 23-230 limits assumed): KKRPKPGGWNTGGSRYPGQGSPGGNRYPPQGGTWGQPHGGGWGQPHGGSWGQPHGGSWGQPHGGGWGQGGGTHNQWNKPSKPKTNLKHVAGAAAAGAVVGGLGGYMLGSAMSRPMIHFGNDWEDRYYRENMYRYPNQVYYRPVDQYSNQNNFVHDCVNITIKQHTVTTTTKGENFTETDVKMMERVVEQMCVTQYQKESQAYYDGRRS

Consider (GGG)KKKKKKKK [SEQ ID NO:85], for which, in assay [1], the “pH of optimal binding to PrP^Sc” value is on record as 8 and the “binding to PrP^Sc compared among peptide reagents” value is “bound equally well”.
In the case of (GGG)KKRPKPGG [SEQ ID NO:68], in assay [1], the “pH of optimal binding to PrP^Sc” value was found to be 8 and the “binding to PrP^Sc compared among peptide reagents” value is on record as “bound equally well”. For the same substance, in assay [2], the “binding to PrP^Sc in infected mouse brain homogenate (FIG. 4, lane 5)” value is recorded as “strong binding”.
Turning to (GGG)KKRPKPGGWNTGG [SEQ ID NO:67], in assay [3], the “PrP^Sc eluted from peptide reagent” value is recorded as “eluted all”. Moreover, in assay [4], the “PrP^Sc dissociated from peptide reagent” value is reported as “virtually all”.
Regarding (GGG)QWNKPSKPKTN [SEQ ID NO:14], in assay [1], the “pH of optimal binding to PrP^Sc” value was 8 and the “binding to PrP^Sc compared among peptide reagents” value is recorded as “bound equally well”.
With “GGGQWNKPSK*KTN, wherein * is N-(cyclopropylmethyl)glycine [SEQ ID NO:111]”, in assay [4], the “PrP^Sc dissociated from peptide reagent with NaCl” value was “little was dissociated” and the “tightness of PrP^Sc binding to peptide reagent” value is “bound most tightly”.
